Data taken from patent US20210371385A1, “POLYMORPHIC AND AMORPHOUS FORMS OF ISOQUINOLINONE AND METHODS OF USE THEREOF” (Sojournix, Inc., priority 2018, published 2021).
Converted amounts (≈) assume the structure as drawn. Where two headings read alike, the source gives them in different places.

Key:
[1] = pKa determination, co-solvent potentiometric titration (Yasuda-Shedlovsky extrapolation); assay type: physicochemical; settings: 25.4 °C, MeOH co-solvent potentiometric, extrapolated to 0% co-solvent
Description: pKa determination and assignment was completed on SJB-01 (FIG. 1). About 2 mg of SJB-01 (100142-1-1) was titrated three times with varying concentrations of MeOH as co-solvent to generate a Yasuda-Shedlovsky plot (L100142-65-4, FIG. 2 and Table 1). Extrapolation of the Yasuda-Shedlovsky plot to 0% co-solvent determined the pKa's (FIG. 3), which are acidic 5.76, basic 3.03. Acidic pKa is in red and basic pKa is in blue.
pKa and log P/D data were collected using Pion PULSE Attain software. The Pion PULSE solutions consisted of using ionic strength adjusted water (0.15 M KCl), 0.5 M HCl and […] which were used for all titrations. Purge gas (argon) was used for HEPES (probe validation), KHP (KOH concentration determination), aqueous potentiometric and log P/D potentiometric titrations.
The Pion PULSE was equipped with an overhead variable speed stirrer, double junction Ag/AgCl pH probe, UV probe with a 1 cm pathlength, Carl-Zeiss spectrophotometer with 256-bit photodiode array, and a temperature probe. The pH of the instrument can range from 1.8-12.2. The compatible co-solvents are MeOH, EtOH, ACN, DMSO and 1,4-dioxane. pKa measurements were completed by either potentiometric or UV-metric methods. log P/D was measured using water saturated 1-octanol as the partitioning solvent. Data was refined using the Pion PULSE refine software.

[2] = Solubility by gravimetric method in 14 solvents; assay type: physicochemical; settings: for solubility at 2 days: organic solvent or mixture, thermodynamic from solid; for Solubility: Water:DMSO (9:1 vol)
Description: Solubility measurements were done by gravimetric method in 14 different solvents at two temperatures (23° C. and 50° C.). About 25-35 mg solid was dispensed in 2 mL vials and 0.75 mL solvent was added to form a slurry. The slurries were then stirred for two days. The vials were centrifuged and the supernatant was collected for solubility measurement by gravimetric method.

[3] = pKa measured by titration (Example 3); assay type: physicochemical; settings: measurable detection limit of 2
Description: The pKa value was measured by titration.

[4] = Absorption of solid compound dosed orally in rats; assay type: in vivo, Sprague Dawley rats; settings: for bioavailability: Sprague Dawley, rat, in vivo, oral microsuspension, read-out: Absolute bioavailability
Description: The possibility of dosing SJB-01 orally as a solid was explored in rats, as a means to evaluate the developability of the compound. Clinical relevant doses (1, 5 and 10 mg/kg) were administered to rats as microsuspensions. Furthermore, to explore the role of particle size, a suspension (5 mg/kg) was administered as well for comparison.

[5] = Solubility in buffered solutions vs pH at 37 °C (HPLC); assay type: physicochemical; settings: thermodynamic from solid, read-out: Solubility at 24 h
Description: Aqueous buffers between pH 1.3 and 7.4 (13 total) were prepared and 3 mL added to about 15 mg of SJB-01 (L100149-44-1, jet-milled). These slurries were stirred on a hot-plate at 37° C. for 24 hours. Sonication and vortexting was employed within the first 2 hours of stirring to ensure thorough mixing and wetting of the solids as there was a clear tendency for them to clump and float at the liquid surface. After sonication and vortexing there was substantial solids suspended in solution (slurry) along with the solids that floated on top. At 24 hours, the samples were collected by syringe filtration of about 2 mL of solution. The first 1 mL of solution that passed through the filter was discarded and the second 0.5-1 mL of solution was used for HPLC analysis. The samples were injected into HPLC without dilution.
SJB-01 (L100149-44-1) was weighed directly into volumetric flasks and filled to volume with ACN:water (6:4 vol.) to build a calibration curve. […] Details for the HPLC method used are given in Table 34; these follow the parameters used for previous dissolution study.

[6] = in vivo, 140 mg/kg
Description: Formulations for toxicological evaluation of SJB-01 were considered. The highest solubility was obtained with 100% PEG 400 and a mixture of Gelucire and PEG 400. Since a formulation with Gelucire:PEG required increased handling time, including dosing at ˜45° C., 100% PEG 400 was chosen for formulation purpose in the early toxicological evaluation including mini-MTD (maximum tolerated dose) and a 14 days toxicological dosing study. The maximum dose reached was 140 mg/kg-the highest possible dose achievable with PEG 400 as vehicle. […] From a formulation perspective, this can only be done by using Gelucire:PEG as a vehicle, under the assumption that a solution will lead to a higher bioavailability than dosing the compound in a PEG 400 suspension. In the table below, the maximum dose of SJB-01 given on a solubilized form is provided, taking into account the tolerated dose of the vehicle as well.

CCNn1c(C)c(C(=O)N[C@H](c2ccccc2)C2CC2)c2cccc(F)c2c1=O [SJB-01, 2-Ethylamino-8-fluoro-3-methyl-1-oxo-1,2-dihydro-isoquinoline-4-carboxylic acid ((S)-cyclopropyl-phenyl-methyl)-amide]
pKa (acidic) ([1]; acidic): 5.76
pKa ([1]; acidic, read-out: pKa (acidic)): 5.83 ± 0.11
pKa ([1]; basic, read-out: pKa (basic)): 3.03 ± 0.11
solubility at 2 days ([2]; ACN, 23 °C): 62 mg/mL (≈ 158 mM)
solubility at 2 days ([2]; ACN, 50 °C): 99 mg/mL (≈ 252 mM)
solubility at 2 days ([2]; EtOAc, 23 °C): 42 mg/mL (≈ 107 mM)
solubility at 2 days ([2]; EtOAc, 50 °C): 67 mg/mL (≈ 170 mM)
solubility at 2 days ([2]; EtOH, 23 °C): > 42 mg/mL
solubility at 2 days ([2]; IPA:water (85:15 vol), 23 °C): 27 mg/mL (≈ 68.6 mM)
solubility at 2 days ([2]; IPA:water (85:15 vol), 50 °C): 60 mg/mL (≈ 152 mM)
solubility at 2 days ([2]; IPAc, 23 °C): 22 mg/mL (≈ 55.9 mM)
solubility at 2 days ([2]; IPAc, 50 °C): 37 mg/mL (≈ 94 mM)
solubility at 2 days ([2]; MIBK, 23 °C): 40 mg/mL (≈ 102 mM)
solubility at 2 days ([2]; MIBK, 50 °C): 61 mg/mL (≈ 155 mM)
solubility at 2 days ([2]; MtBE, 23 °C): 8 mg/mL (≈ 20.3 mM)
solubility at 2 days ([2]; MtBE, 50 °C): 11 mg/mL (≈ 28 mM)
solubility at 2 days ([2]; THF, 23 °C): > 68 mg/mL
solubility at 2 days ([2]; THF, 50 °C): > 68 mg/mL
Solubility ([2]; 23 °C): Nil
Solubility ([2]; 50 °C): Nil
solubility at 2 days ([2]; acetic acid, 23 °C): > 72 mg/mL
solubility at 2 days ([2]; acetic acid, 50 °C): > 72 mg/mL
solubility at 2 days ([2]; acetone, 23 °C): > 67 mg/mL
solubility at 2 days ([2]; acetone, 50 °C): > 67 mg/mL
solubility at 2 days ([2]; dioxane, 23 °C): > 74 mg/mL
solubility at 2 days ([2]; dioxane, 50 °C): > 74 mg/mL
solubility at 2 days ([2]; ethanol, EtOH, 50 °C): > 42 mg/mL
solubility at 2 days ([2]; isopropanol (IPA), IPA, 23 °C): 29 mg/mL (≈ 73.7 mM)
solubility at 2 days ([2]; isopropanol (IPA), IPA, 50 °C): 64 mg/mL (≈ 163 mM)
solubility at 2 days ([2]; MeOH, 23 °C, lot L100142-1-1): > 76 mg/mL
solubility at 2 days ([2]; MeOH, 50 °C, lot L100142-1-1): > 76 mg/mL
pKa [3]: < 2
bioavailability ([4]; 10 mg/kg): ~30%
bioavailability ([4]; 1 and 5 mg/kg): ~20%
Bioavailability, comparison of particle size ([4]; oral, 5 mg/kg, particle size 10 and 50 μm): no differences in bioavailability
solubility at 24 h ([5]; Britton-Robinson 0.05M buffer, aqueous buffer, Britton-Robinson 0.05M, initial pH 2.21, 24 h pH 2.22, 37 °C): 0.0079 mg/mL (≈ 0.0201 mM)
solubility at 24 h ([5]; Britton-Robinson 0.05M buffer, aqueous buffer, Britton-Robinson 0.05M, initial pH 2.85, 24 h pH 2.97, 37 °C): 0.0074 mg/mL (≈ 0.0188 mM)
solubility at 24 h ([5]; Britton-Robinson 0.05M buffer, aqueous buffer, Britton-Robinson 0.05M, initial pH 4.95, 24 h pH 5.01, 37 °C): 0.0077 mg/mL (≈ 0.0196 mM)
solubility at 24 h ([5]; Citric acid/NaOH 0.05M buffer, aqueous buffer, Citric acid/NaOH 0.05M, initial pH 2.86, 24 h pH 2.88, 37 °C): 0.0081 mg/mL (≈ 0.0206 mM)
solubility at 24 h ([5]; Citric acid/NaOH 0.05M buffer, aqueous buffer, Citric acid/NaOH 0.05M, initial pH 3.82, 24 h pH 3.85, 37 °C): 0.0075 mg/mL (≈ 0.0191 mM)
solubility at 24 h ([5]; Citric acid/NaOH 0.05M buffer, pH 4.9, aqueous buffer, Citric acid/NaOH 0.05M, initial pH 4.90, 24 h pH 4.90, 37 °C): 0.0072 mg/mL (≈ 0.0183 mM)
solubility at 24 h ([5]; HCl/KCl 0.05M buffer, aqueous buffer, HCl/KCl 0.05M, initial pH 2.13, 24 h pH 2.16, 37 °C): 0.0075 mg/mL (≈ 0.0191 mM)
solubility at 24 h ([5]; HCl/KCl 0.05M buffer, pH 1.3, simulated gastric fluid, HCl/KCl 0.05M, initial pH 1.34, 24 h pH 1.30, 37 °C, jet-milled beta form): 0.0078 mg/mL (≈ 0.0198 mM)
solubility at 24 h ([5]; KH2PO4/NaOH 0.05M buffer, aqueous buffer, KH2PO4/NaOH 0.05M, initial pH 5.98, 24 h pH 6.04, 37 °C): 0.0071 mg/mL (≈ 0.018 mM)
solubility at 24 h ([5]; KH2PO4/NaOH 0.05M buffer, aqueous buffer, KH2PO4/NaOH 0.05M, initial pH 7.46, 24 h pH 7.47, 37 °C): 0.0064 mg/mL (≈ 0.0163 mM)
solubility at 24 h ([5]; KHP/HCl 0.05M buffer, aqueous buffer, KHP/HCl 0.05M, initial pH 3.18, 24 h pH 3.14, 37 °C): 0.0095 mg/mL (≈ 0.0241 mM)
solubility at 24 h ([5]; KHP/HCl 0.05M buffer, aqueous buffer, KHP/HCl 0.05M, initial pH 3.89, 24 h pH 3.94, 37 °C): 0.0098 mg/mL (≈ 0.0249 mM)
solubility at 24 h ([5]; KHP/NaOH 0.05M buffer, aqueous buffer, KHP/NaOH 0.05M, initial pH 4.96, 24 h pH 4.99, 37 °C): 0.0083 mg/mL (≈ 0.0211 mM)
Clinical observations at maximum dose reached [6]: no clinical observations
